According to US20180250232A1, “PROCESS FOR PREPARING SPRAY DRIED SOLID DISPERSIONS OF (S)-N-(3-(6-ISOPROPOXYPYRIDIN-3-YL)-1H-INDAZOL-5-YL)-1-(2-(4-(4-(1-METHYL-1H-1,2,4-TRIAZOL-3-YL)PHENYL)-3,6-DIHYDROPYRIDIN-1(2H)-YL)-2-OXOETHYL)-3-(METHYLTHIO)PYRROLIDINE-3-CARBOXAMIDE FOR PHARMACEUTICAL PREPARATIONS” (Merck Sharp & Dohme Corp., priority 2015, published 2018):

Test: polymorph studies / competition slurry experiments
Assay type: physicochemical
Experimental: Preliminary polymorph screening for (S)—N-(3-(6-isopropoxypyridin-3-yl)-1H-indazol-5-yl)-1-(2-(4-(4-(1-methyl-1H-1,2,4-triazol-3-yl)phenyl)-3,6-dihydropyridin-1(2H)-yl)-2-oxoethyl)-3-(methylthio)pyrrolidine-3-carboxamide were conducted by solvent-mediated slurry experiments in 10 different solvents or solvent mixtures using the amorphous compound as the starting material.

more stable form in competition slurry experiments (hydrate form 1 and 2 as seeds in H2O/methanol mixture (H2O activity of 0.5), room temperature and 4° C.): more stable form in both experiments
Structure (SMILES): CS[C@@]1(C(=O)Nc2ccc3[nH]nc(-c4ccc(OC(C)C)nc4)c3c2)CCN(CC(=O)N2CC=C(c3ccc(-c4ncn(C)n4)cc3)CC2)C1 [hydrate form 2, (S)—N-(3-(6-isopropoxypyridin-3-yl)-1H-indazol-5-yl)-1-(2-(4-(4-(1-methyl-1H-1,2,4-triazol-3-yl)phenyl)-3,6-dihydropyridin-1(2H)-yl)-2-oxoethyl)-3-(methylthio)pyrrolidine-3-carboxamide crystalline free base hydrate form 2]
stability of crystalline form (polymorph studies) (room temperature): most stable crystalline form at room temperature
